Source: ChEMBL document CHEMBL5303304, “EUbOPEN Chemogenomics Library - IncuCyte” (2023)

Legend:
Type in all cases: toxicity, cell-based
U2OS = test: Incucyte cell viability with U2OS; conditions: human, 10 µM, compound concentration 10 uM
Fibroblast = test: Incucyte cell viability with human fibroblast; conditions: 10 µM, compound concentration 10 uM
HEK-293T = test: Incucyte cell viability with HEK293T; conditions: human, 10 µM, compound concentration 10 uM
Further: unitless GR value; below 1 slowed growth and below 0 cell loss.

Compound	Growth Rate (U2OS; 0 h, replicate number 2)	Growth Rate (U2OS; 6 h, replicate number 1)	Growth Rate (U2OS; 6 h, replicate number 2)	Growth Rate (U2OS; 12 h, replicate number 1)	Growth Rate (U2OS; 12 h, replicate number 2)	Growth Rate (U2OS; 18 h, replicate number 1)	Growth Rate (U2OS; 18 h, replicate number 2)	Growth Rate (U2OS; 24 h, replicate number 1)	Growth Rate (U2OS; 24 h, replicate number 2)	Growth Rate (Fibroblast; 0 h, replicate number 1)	Growth Rate (Fibroblast; 6 h, replicate number 2)	Growth Rate (Fibroblast; 12 h, replicate number 2)	Growth Rate (Fibroblast; 18 h, replicate number 1)	Growth Rate (HEK-293T; 6 h, replicate number 1)	Growth Rate (HEK-293T; 12 h, replicate number 2)	Growth Rate (HEK-293T; 24 h, replicate number 2)	Growth Rate (U2OS; 0 h, replicate number 1)	Growth Rate (HEK-293T; 6 h, replicate number 2)	Growth Rate (Fibroblast; 6 h, replicate number 1)	Growth Rate (Fibroblast; 24 h, replicate number 1)	other results
CC(C)c1ccc(CC(=O)N[C@H](C)c2ccc(OCC(F)(F)F)cn2)cc1 [SUVECALTAMIDE]	0.67	-0.32	0.56	0.59	0.89	0.76	0.86	0.78	0.9	-0.55	-1	0.94	0.11	0.16	0.87	0.8					Growth Rate (Fibroblast; 18 h, replicate number 2): 0.84; Growth Rate (Fibroblast; 24 h, replicate number 2): 0.74; Growth Rate (HEK-293T; 0 h, replicate number 2): 0.85; Growth Rate (HEK-293T; 18 h, replicate number 2): 0.95
C=CC[C@@H]1/C=C(\C)C[C@H](C)C[C@H](OC)[C@H]2O[C@@](O)(C(=O)C(=O)N3CCCC[C@H]3C(=O)O[C@H](/C(C)=C/[C@@H]3CC[C@@H](O)[C@H](OC)C3)[C@H](C)[C@@H](O)CC1=O)[C@H](C)C[C@@H]2OC.O [TACROLIMUS]	-1	0.95	0.5	0.75	0.7	0.81	0.87		0.85		-0.26	0.85	0.96	-0.24	0.99	0.99	0.59	0.77			Growth Rate (Fibroblast; 0 h, replicate number 2): -0.85; Growth Rate (HEK-293T; 0 h, replicate number 2): -0.12; Growth Rate (HEK-293T; 12 h, replicate number 1): 0.41; Growth Rate (HEK-293T; 18 h, replicate number 1): 0.78; Growth Rate (HEK-293T; 18 h, replicate number 2): 0.82; Growth Rate (HEK-293T; 24 h, replicate number 1): 0.87
COc1cc(N2CCC(N3CCN(C)CC3)CC2)ccc1Nc1ncc(Cl)c(Nc2ccccc2S(=O)(=O)C(C)C)n1 [TAE-684]	-0.18	-0.18	0.84	-0.09	0.29	-0.06	0.27	-0.15	0.07		-0.99	-0.28	0.29	-0.99	-0.16	0.17		-0.4	0.37	-0.12	Growth Rate (Fibroblast; 12 h, replicate number 1): -0.98; Growth Rate (Fibroblast; 18 h, replicate number 2): -0.21; Growth Rate (Fibroblast; 24 h, replicate number 2): -0.32; Growth Rate (HEK-293T; 12 h, replicate number 1): -0.93; Growth Rate (HEK-293T; 18 h, replicate number 1): -0.8; Growth Rate (HEK-293T; 18 h, replicate number 2): 0.06; Growth Rate (HEK-293T; 24 h, replicate number 1): -0.72
CCc1nc(-c2cccc(C)c2)c(-c2ccnc(NC(=O)c3ccccc3)c2)s1 [TAK-715]	0.2	0.63			0.79	-0.35	0.87		0.92	-0.56	0.83			0.48		0.81	-1	0.96			Growth Rate (HEK-293T; 24 h, replicate number 1): 0.92
CC/C(=C(\c1ccccc1)c1ccc(OCCN(C)C)cc1)c1ccccc1.O=C(O)CC(O)(CC(=O)O)C(=O)O [TAMOXIFEN CITRATE]	0.89	0.66	1	0.8	0.93	0.84	0.88	0.91	0.95		0.32	-0.01	-0.15	0.14	0.48	0.52	-0.22	0.13	0.1	-0.08	Growth Rate (Fibroblast; 12 h, replicate number 1): -0.13; Growth Rate (Fibroblast; 18 h, replicate number 2): -0.19; Growth Rate (Fibroblast; 24 h, replicate number 2): -0.21; Growth Rate (HEK-293T; 0 h, replicate number 2): -0.98; Growth Rate (HEK-293T; 12 h, replicate number 1): 0.4; Growth Rate (HEK-293T; 18 h, replicate number 1): 0.48; Growth Rate (HEK-293T; 18 h, replicate number 2): 0.45; Growth Rate (HEK-293T; 24 h, replicate number 1): 0.56
Cn1nccc1Nc1nccc(-c2cc3c(s2)C(C)(C)N(CCN2CCOCC2)C3=O)n1 [TEMUTERKIB]	-0.42	0.47	0.51	0.66			0.82		0.9	-0.63			0.27		0.76	1	-0.62	0.33		0.12	Growth Rate (Fibroblast; 0 h, replicate number 2): -0.1; Growth Rate (Fibroblast; 12 h, replicate number 1): -0.93; Growth Rate (HEK-293T; 0 h, replicate number 1): 0.39
Cn1cc(C(=O)O)c2ccc(N3CCC(OCc4c(-c5c(Cl)cccc5Cl)noc4C4CC4)CC3)cc21 [TERN-101]		0.86	-0.83	0.74	0.96	0.87		0.91			0.73		0.62	0.97			-0.23		-0.66	0.37	Growth Rate (Fibroblast; 0 h, replicate number 2): 0.89; Growth Rate (Fibroblast; 12 h, replicate number 1): 0.61; Growth Rate (Fibroblast; 18 h, replicate number 2): 0.97; Growth Rate (Fibroblast; 24 h, replicate number 2): 0.87
CCO[C@@H](Cc1ccc(OCCc2ccc(OS(C)(=O)=O)cc2)cc1)C(=O)O [TESAGLITAZAR]	0.8		0.99			0.98		0.87		0.92	0.72	0.56	0.64	1	0.68	0.7		0.96	0.95	0.99	Growth Rate (Fibroblast; 0 h, replicate number 2): 0.24; Growth Rate (Fibroblast; 18 h, replicate number 2): 0.87; Growth Rate (HEK-293T; 0 h, replicate number 1): 0.24; Growth Rate (HEK-293T; 0 h, replicate number 2): -0.46; Growth Rate (HEK-293T; 18 h, replicate number 2): 0.85
O=C(O)Cc1cc(I)c(Oc2ccc(O)c(I)c2)c(I)c1 [TIRATRICOL]		0.77		-0.73		0.97	0.96		0.9	0.68	0.26	0.55			0.66	0.69			0.72	0.92	Growth Rate (Fibroblast; 18 h, replicate number 2): 0.7; Growth Rate (Fibroblast; 24 h, replicate number 2): 0.76; Growth Rate (HEK-293T; 0 h, replicate number 1): 0.25; Growth Rate (HEK-293T; 0 h, replicate number 2): -0.35; Growth Rate (HEK-293T; 18 h, replicate number 1): 0.92; Growth Rate (HEK-293T; 18 h, replicate number 2): 0.7; Growth Rate (HEK-293T; 24 h, replicate number 1): 1
Cc1cc(Nc2cc(N)ncn2)c(=O)n2c1C(=O)NC21CCCCC1 [TOMIVOSERTIB]	0.6		0.49	0.96		0.93	0.92	0.88	0.85		-0.8			0.32			0.95		0.58		Growth Rate (Fibroblast; 0 h, replicate number 2): -1; Growth Rate (Fibroblast; 12 h, replicate number 1): -1; Growth Rate (HEK-293T; 0 h, replicate number 2): 0.56
CC1CCN(c2ccnc(NCc3cn(C)cn3)n2)CC1 [TP-040]	0.69		0.76		0.8		0.86		0.84		0.66	0.76	0.71				-1	0.85	0.15	0.65	Growth Rate (Fibroblast; 0 h, replicate number 2): -0.66; Growth Rate (Fibroblast; 12 h, replicate number 1): 0.71
CN1CCN(c2ccnc(NCCc3ccccc3)n2)CC1 [TP-040n]			-0.72	1		0.94	0.96		0.87	-1		0.9	0.74	0.2	0.3	0.4		0.09		0.58	Growth Rate (Fibroblast; 12 h, replicate number 1): 0.8; Growth Rate (Fibroblast; 18 h, replicate number 2): 0.63; Growth Rate (Fibroblast; 24 h, replicate number 2): 0.53; Growth Rate (HEK-293T; 12 h, replicate number 1): 0.39; Growth Rate (HEK-293T; 18 h, replicate number 1): 0.42; Growth Rate (HEK-293T; 18 h, replicate number 2): 0.35; Growth Rate (HEK-293T; 24 h, replicate number 1): 0.41
CC(=O)Nc1cccc(-n2c(=O)n(C3CC3)c(=O)c3c(Nc4ccc(I)cc4F)n(C)c(=O)c(C)c32)c1 [TRAMETINIB]	0.61	0.99	0.66	0.58	0.91	0.53	0.85	0.9	0.74						0.78		0.34	0.92	0.65		Growth Rate (HEK-293T; 0 h, replicate number 1): 0.04; Growth Rate (HEK-293T; 0 h, replicate number 2): -0.7
CN1CCN(c2ccc(Nc3ncc4cc5n(c4n3)C3(CCCCC3)CNC5=O)nc2)CC1 [TRILACICLIB]		0.29				0.92		0.84	0.98	-1						0.99	0.26				Growth Rate (HEK-293T; 0 h, replicate number 1): -0.98
